Results as given in patent publication US20220194938A1, “NOVEL COMPOUNDS AND PHARMACEUTICAL COMPOSITIONS THEREOF FOR THE TREATMENT OF INFLAMMATORY DISORDERS” (GALAPAGOS NV, priority 2019, published 2022).
Read-outs that look alike come from different tables or passages of the source.

Test system: CL097 triggered IFNα and TNFα release in human whole blood
Assay: Ex vivo human IFNα and TNFα release inhibition (whole blood assay, CL097 triggered)
Assay type: cell-based
Conditions: CL097 2 μg/mL, 3 h 30 min
Description: 4.10.1. Ex Vivo Human IFNα and TNFα Release Inhibition (Whole Blood Assay)
The aim of the assay is to evaluate the activity of compounds of the invention on the activated TLR/IRAK-4 pathway in an ex vivo human whole blood setting. Toll-like receptors (TLRs) are pattern recognition receptors that recognize a wide variety of microbial molecules, called pathogen-associated molecular patterns (PAMPs). Human TLR7 and TLR8 recognize imidazoquinoline compounds (e.g., CL097—CAS n #1026249-18-2) and single stranded RNAs as their natural ligands. Activation of TLRs leads to the production of several cytokines (e.g., IFNα, TNFα, IL-8, IL-6) by the TLR agonist-treated cells, whereas IRAK4 leads to the production of IFNα. Cytokine release is used as readout in this assay and represents a measure for the level of inhibition of the TLR/IRAK-4 pathway by the tested compound. It should be noted that in the context of the complete organism, other sources for these cytokines exist that are not dependent on the TLR/IRAK-4 pathway, such as e.g., macrophages (upon activation of the Fcγ receptor (Yan et al. 2012)) or T cells (upon activation of the T cell receptor (Brehm, Daniels, and Welsh 2005)).
4.10.1.1. Experimental Design
Blood was collected from healthy volunteers into lithium heparin tubes by venipuncture, then gently inverted several times to prevent clotting and incubated for at least 15 min at 37° C. on a rocking mixer shaker. Then, 100 μL of blood was dispensed into polypropylene 96-well microplate and pre-incubated in duplicate with 0.3% DMSO or test compound at different concentrations (from 30 to 0.01 μM, 3-fold dilutions to get 0.3% DMSO at the final) for 15 min at 37° C. After this pre-incubation, blood was triggered with CL097 (2 μg/mL from 1 mg/mL solution in water; InvivoGen, tlr1-c97) for 3 h 30 min at 37° C. Microtubes were centrifuged at 5000×g for 10 min at 4° C. and approximately 40 μL of plasma were collected into a polystyrene 96-well plate. Plasma could be analyzed freshly, within 30 min after triggering, or frozen at −80° C. Finally, the quantification of TNFα and IFNα were performed in the plasma using AlphaLISA Kit for […] according to the manufacturer's instructions and read on the Ensight (PerkinElmer).
A standard curve was created by plotting on log-log the mean absorbance on the y-axis against the concentration on the x-axis and a 4 PL was made through the points. For each blood sample, the IFNα concentrations of the samples were determined from the fit.
Data were then expressed as a percentage of inhibition (PIN) for each replicate using the formula:
With mean IFNα with CL097=mean IFNα concentration of replicate samples triggered with CL097; IFNαsample1=IFNα concentration of sample 1; mean IFNα with vehicle=mean IFNα concentration of replicate samples treated with vehicle.
For each blood sample, the TNFα concentrations of the samples were determined from the fit. Data were then expressed as a percentage of inhibition (PIN) for each replicate using the formula:
With mean TNFα with CL097=mean TNFα concentration of replicate samples triggered with CL097; TNFαsample1=TNFα concentration of sample 1; mean TNFα with vehicle=mean TNFα concentration of replicate samples treated with vehicle.
Curve fitting for pIC50 determination were generated using mean PIN±sem. Graphs and pIC50 calculations were derived using Prism 5.03 software (GraphPad).

Compound | IC50 (read-out: IFNα IC50) | IC50 (read-out: TNFα IC50)
[2H]C([2H])([2H])NC(=O)c1cc2nc(CCC(C)(C)O)cn2cc1NC(=O)c1cccc(C(F)(F)F)n1 [Compound 1, 2-(3-hydroxy-3-methyl-butyl)-N-(trideuteriomethyl)-6-[[6-(trifluoromethyl)pyridine-2-carbonyl]amino]imidazo[1,2-a]pyridine-7-carboxamide] | 1000 to 5000 nM | 0.1 to 500 nM
COc1cc2nc(CCC(C)(C)O)cn2cc1NC(=O)c1cccc(C(F)(F)F)n1 [Compound 3, N-[2-(3-hydroxy-3-methyl-butyl)-7-methoxy-imidazo[1,2-a]pyridin-6-yl]-6-(trifluoromethyl)pyridine-2-carboxamide] | 1000 to 5000 nM | 
COc1cc2nc(CCC(C)(C)O)cn2cc1NC(=O)c1cccn(C)c1=O [Compound 4, N-[2-(3-hydroxy-3-methyl-butyl)-7-methoxy-imidazo[1,2-a]pyridin-6-yl]-1-methyl-2-oxo-pyridine-3-carboxamide] | 0.1 to 500 nM | 
CCOc1c(NC(=O)c2cccn(C3CC3)c2=O)cn2cc(CCS(C)(=O)=O)nc2c1F [Compound 39, 1-cyclopropyl-N-[7-ethoxy-8-fluoro-2-(2-methylsulfonylethyl)imidazo[1,2-a]pyridin-6-yl]-2-oxo-pyridine-3-carboxamide] | 500 to 1000 nM | 500 to 1000 nM
COc1cc2nc(CCC(C)(C)O)cn2cc1NC(=O)c1cccn(C2CC2)c1=O [Compound 5, 1-cyclopropyl-N-[2-(3-hydroxy-3-methyl-butyl)-7-methoxy-imidazo[1,2-a]pyridin-6-yl]-2-oxo-pyridine-3-carboxamide] | 0.1 to 500 nM | 
CNC(=O)c1cc2nc(CCC(C)(C)O)cn2cc1NC(=O)c1cccc(C(F)(F)F)n1 [Compound 2, 2-(3-hydroxy-3-methyl-butyl)-N-methyl-6-[[6-(trifluoromethyl)pyridine-2-carbonyl]amino]imidazo[1,2-a]pyridine-7-carboxamide] | 500 to 1000 nM | 0.1 to 500 nM
COc1cc2nc(CCC(C)(C)O)cn2cc1NC(=O)c1cccc(C(F)F)n1 [Compound 7, 6-(difluoromethyl)-N-[2-(3-hydroxy-3-methyl-butyl)-7-methoxy-imidazo[1,2-a]pyridin-6-yl]pyridine-2-carboxamide] | 0.1 to 500 nM | 
COc1c(NC(=O)c2cccn(C3CC3)c2=O)cn2cc(CCC(C)(C)O)nc2c1F [Compound 42, 1-cyclopropyl-N-[8-fluoro-2-(3-hydroxy-3-methyl-butyl)-7-methoxy-imidazo[1,2-a]pyridin-6-yl]-2-oxo-pyridine-3-carboxamide] | 500 to 1000 nM | 0.1 to 500 nM
CC(C)(O)CCc1cn2cc(NC(=O)c3cccc(C(F)(F)F)n3)c(C(=O)NCC(F)F)cc2n1 [Compound 48, N-(2,2-difluoroethyl)-2-(3-hydroxy-3-methylbutyl)-6-(6-(trifluoromethyl)picolinamido)imidazo[1,2-a]pyridine-7-carboxamide] | 1000 to 5000 nM | 1000 to 5000 nM

Other lines, results leading:

IC50 (read-out: IFNα IC50) | IC50 (read-out: TNFα IC50) | Compound
500 to 1000 nM |  | COc1cc2nc(CCC(C)(C)O)cn2cc1NC(=O)c1cccn(C(F)F)c1=O [Compound 12, 1-(difluoromethyl)-N-[2-(3-hydroxy-3-methyl-butyl)-7-methoxy-imidazo[1,2-a]pyridin-6-yl]-2-oxo-pyridine-3-carboxamide]
0.1 to 500 nM |  | COc1cc2nc(CCC(C)(C)O)cn2cc1NC(=O)c1cccc(C)n1 [Compound 6, N-[2-(3-hydroxy-3-methyl-butyl)-7-methoxy-imidazo[1,2-a]pyridin-6-yl]-6-methyl-pyridine-2-carboxamide]
0.1 to 500 nM |  | COc1cc2nc(CCS(C)(=O)=O)cn2cc1NC(=O)c1cccn(C2CC2)c1=O [Compound 25, 1-cyclopropyl-N-[7-methoxy-2-(2-methylsulfonylethyl)imidazo[1,2-a]pyridin-6-yl]-2-oxo-pyridine-3-carboxamide]
500 to 1000 nM |  | COc1cc2nc(CCS(C)(=O)=O)cn2cc1NC(=O)c1cccc(C(F)(F)F)n1 [Compound 24, N-[7-methoxy-2-(2-methylsulfonylethyl)imidazo[1,2-a]pyridin-6-yl]-6-(trifluoromethyl)pyridine-2-carboxamide]
0.1 to 500 nM | 0.1 to 500 nM | CC(C)(O)CCc1cn2cc(NC(=O)c3cccc(C(F)(F)F)n3)c(C(N)=O)cc2n1 [Compound 31, 2-(3-hydroxy-3-methyl-butyl)-6-[[6-(trifluoromethyl)pyridine-2-carbonyl]amino]imidazo[1,2-a]pyridine-7-carboxamide]
> 5000 nM | > 5000 nM | COCCc1cn2cc(NC(=O)c3cccc(C(F)(F)F)n3)c(OC)cc2n1 [Compound 35, N-[7-methoxy-2-(2-methoxyethyl)imidazo[1,2-a]pyridin-6-yl]-6-(trifluoromethyl)pyridine-2-carboxamide]
 | 1000 to 5000 nM | CCOc1c(NC(=O)c2cccn(C3CC3)c2=O)cn2cc(CCC(C)(C)O)nc2c1F [Compound 37, 1-cyclopropyl-N-[7-ethoxy-8-fluoro-2-(3-hydroxy-3-methyl-butyl)imidazo[1,2-a]pyridin-6-yl]-2-oxo-pyridine-3-carboxamide]
